Reference: patent US20260027175A1, “COMPOSITIONS AND METHODS FOR TREATING A COGNITIVE DEFICIT” (priority 2022, published 2026)

Legend:
ICV-OKA rats = test: Cognitive performance in Morris water maze task, ICV-OKA rats; assay type: in vivo, Wistar rats; conditions: ICV injection 100 ng each ventricle, 15th day
Description: Adult male Wistar rats (200-230 g, 2 months old) were used.
Nuclear factor kappa-light-chain-enhancer of activated B cells (NF-KB) and BDNF ELISA kits were procured from Imegenex, San Diego, USA and Millipore, USA respectively. All other chemicals used for biochemical estimations were of analytical grade. SAAC was dissolved in double distilled water (DDW) while okadaic acid was dissolved in artificial cerebrospinal fluid (aCSF) (2.9 mM KCl, 147 mM NaCl, 1.7 mM CaCl2, 1.6 mM MgCl2, and 2.2 mM D-glucose).
(§1) Intracerebroventricular injection of okadaic acid was performed according to the procedure of Kamat et al. (2010). Rats were anesthetized with thiopentone (Neon Laboratories, India, 45 mg/kg, i.p.). The scalp was shaved, cleaned, and cut to expose the skull. The head was positioned in a stereotaxic frame and a midline sagittal incision was made in the scalp. Burr holes were drilled in the skull on both sides over the lateral ventricles by using the following coordinates: 0.8 mm posterior to bregma; 1.5 mm lateral to sagittal suture and 3.6 mm beneath the surface of the brain (Paxinos et al., 1980). […]
(§2) The experimental design is illustrated in FIG. 1. […] Memory impairment was assessed by Morris Water Maze on days 15th, 21st, 28th. […]
The acquisition and retention of memory was evaluated by using Morris water maze (Morris et al., 1982; Tuzcu and Baydas, 2006). […]

NF-κβ p65 subunit = test: Quantification of NF-KB p65 unit (ActivELISA) in hippocampus of ICV-OKA rats; assay type: in vivo, Wistar rats; conditions: ICV-OKA administered rats
Description: as §1, with “1980). Okadaic acid (200 ng) was injected bilaterally making the total dose of 100 ng in each ventricle.” for “1980).”
as §2
The NF-KB/p65 ActivELISA kit (Imgenex, USA) was used to measure NF-KB-free p65 in the nuclear fraction of different brain regions. […] The NF-KB ActivELISA is a sandwich ELISA in which free p65 was captured by anti-p65 antibody-coated plates and the amount of bound p65 was detected by adding a second anti-p65 antibody followed by alkaline phosphatase conjugated secondary antibody using colorimetric detection in an ELISA plate reader at 405 nm. The results were expressed as ng/mg of protein.

BDNF = test: Quantification of brain derived neurotrophic factor (BDNF) in hippocampus of ICV-OKA rats; assay type: in vivo, Wistar rats; conditions: ICV-OKA rats compared to sham group
Description: Intracerebroventricular injection of okadaic acid was performed according to the procedure of Kamat et al. (2010). Rats were anesthetized with thiopentone (Neon Laboratories, India, 45 mg/kg, i.p.). The scalp was shaved, cleaned, and cut to expose the skull. The head was positioned in a stereotaxic frame and a midline sagittal incision was made in the scalp. Burr holes were drilled in the skull on both sides over the lateral ventricles by using the following coordinates: 0.8 mm posterior to bregma; 1.5 mm lateral to sagittal suture and 3.6 mm beneath the surface of the brain (Paxinos et al., 1980). Okadaic acid (200 ng) was injected bilaterally making the total dose of 100 ng in each ventricle. The concentration of okadaic acid in aCSF was adjusted so as to deliver 4 μl of the solution. Sham animals received ICV injection of the same volume of aCSF. The skin was sutured after injection followed by daily application of antiseptic powder (Neosporin). Postoperatively, the rats were fed with oral glucose and normal pellet diet for 4 days, followed by normal pellet diet alone.
as §2
The quantification of BDNF was done with the help and instructions provided by Millipore, USA quantikine rat BDNF immunoassay kit.

Phospho-Tau in neurons = test: Okadaic acid induced Tau hyper-phosphorylation in primary cortical neurons (Phospho-Tau/MAP2 immunofluorescence); assay type: cell-based, rat
Description: The potential efficacy of the test compound (SAAC) against Alzheimer's disease was evaluated using an in vitro model in which Tau hyper-phosphorylation Is Induced by pharmacological treatment.
The test compound was tested in culture medium at […], and 10%. Positive control of reversion of hyperphosphorylation was […] at 3 mM.
Primary cortical cultures from E 19 rat embryos.
Phospho-Tau intensity in neurons and percentage of neurons with hyperphosphorylated Tau.
Cortical neurons from E 19 rat embryos were harvested and plated in 96 well plates. After 9 days in vitro, cells were treated with LiCI at 3 mM for 24 hours as a positive neuroprotective control or the test compound (SAAC) at 7 different concentrations. Another plate was pre-treated with the test compound (SAAC) at 7 different concentrations for 4 hours.
At the end of treatment durations, cells were treated with okadaic acid (OKA) for 3 hours. The cells were then fixed and processed for immunofluorescence analysis of Phospho-Tau (P-Tau) in neurons (Phospho-Tau labelling and neuronal labelling with MAP2 antibody).
After 9 days in vitro, neurons were treated with LiCI at 3 mM for 24 hours as a positive neuroprotective control (FIG. 5) or the test compound (SAAC) at 7 different concentrations (FIG. 7 & FIG. 8). At the end of treatment duration, cells were treated with okadaic acid (OKA) for 3 hours. After Phospho-Tau and MAP2 labelling, the signals were acquired and the mean intensity of Phospho-Tau staining in the neurons as well as the percentage of neurons with a high Phospho-Tau level was assessed.

c-Jun (substrate of JNK) = test: Phospho c-Jun immunofluorescence, high content imaging; assay type: cell-based; conditions: reference treatment: 1 μM anisomycin 10 μg/mL, 30 min
Description: SACC was received as an aqueous stock solution. The different solutions were created by performing cascade dilutions in the culture medium.
Cells were seeded at 12 10^3 cells/well in 96 well plates and cultured for 24 h. Subsequently, cells were exposed to the different tested conditions (reference treatment: 1 μM anisomycin 10 μg/mL, 30 min). At the end of the treatment, the cells were processed for immunofluorescence with a specific antibody against the phosphorylated form of c-Jun. The fluorescent immune-staining was subsequently imaged by high content imaging. Single cell analysis of the phospho c-Jun immune-staining was performed.
The pharmacological modulators that decreased the cytotoxic effects of 1% SACC did it on the 1% were maximally effective at 50 h treatment. Therefore, the effect of SACC was studied after 50 h treatment with 0.1%; 0.3% and 1% SACC on phosphorylation level of the c-Jun (substrate of JNK).

Row | SMILES | lower ability to find the platform and learn its location (ICV-OKA rats) [fold] | elevation of NF-κβ p65 subunit in hippocampus (NF-κβ p65 subunit) [%] | decrease in brain derived neurotrophic factors (BDNF) [%] | increase in the percentage of neurons with high Phospho-Tau levels (Phospho-Tau in neurons; 10 nM okadaic acid, 3 hours) [fold] | phosphorylation of Tau (Phospho-Tau in neurons; 10 nM okadaic acid, 4 h treatment experiment) | increase in the percentage of neurons with high Phospho-Tau levels (Phospho-Tau in neurons; 100 nM okadaic acid, 3 hours) [fold] | phosphorylation of the Tau protein (Phospho-Tau in neurons; okadaic acid 10 nM and 100 nM, 3 hours) | amount of phosphorylated tau in the axons and dendrites of the neurons (Phospho-Tau in neurons; okadaic acid treatment alone) | c-Jun phosphorylation (c-Jun (substrate of JNK))
1 | C=C1[C@@H](O)[C@@H]2O[C@]3(CC[C@H](/C=C/[C@@H](C)[C@@H]4CC(C)=C[C@@]5(O[C@H](C[C@@](C)(O)C(=O)O)CC[C@H]5O)O4)O3)CC[C@H]2O[C@@H]1[C@@H](O)C[C@H](C)[C@H]1O[C@@]2(CCCCO2)CC[C@H]1C [okadaic acid] | 1.5 | 105 | 40 | ~2 | not able to elicit any increase | ~3 | increased the phosphorylation of the Tau protein in a dose dependent way | greatly increased | –
2 | COc1ccc(C[C@H]2NC[C@H](O)[C@H]2OC(C)=O)cc1 [Aniosomycin, anisomycin] | – | – | – | – | – | – | – | – | induced c-Jun phosphorylation in the total population of treated cells
